Data taken from patent US12370202B2, “Methods and compositions for inhibiting the NLRP3 inflammasome and/or LON protease” (TRITERPENOID THERAPEUTICS, INC., priority 2019, dated 2025).

Assays:
CP70 = assay: Ovarian cancer cell growth (confluence), IncuCyte ZOOM; assay type: cell-based, human; details: cisplatin dose used in the combination
From the text: (§1) FIG. 11 is a set of line graphs. Cisplatin resistant human ovarian cancer cell lines A2780, CP70, OV81, CP10, OVCAR-5 and OVCAR-8 were exposed to CDDO-2P-Im, cisplatin, or a combination of CDDO-2P-Im and cisplatin.
(§2) CDDO-2P-Im suppresses growth of cisplatin-resistant human ovarian cancer cells in vitro. Cisplatin resistant human ovarian cancer cell lines A2780, CP70, OV81, CP10, OVCAR-5 and OVCAR-8 cell were each cultured in a complete medium consisting of RPMI1640, 20% heat-inactivated FBS, 1% penicillin/streptomycin. Cells were cultured in a water jacketed CO2 incubator at 37° C. in a humidified atmosphere consisting of 5% CO2 and 95% air. Continuous live-cell analysis (CLCA) was used as a non-invasive cell monitoring and measurement method based on time-lapse, phase-contrast microscopy and fluorescence imaging, using IncuCyte® ZOOM. Cells were seeded in 96-well plates at densities of either 1×10^4 or 3×10^4 cell/cm^2 followed by addition of a drug dilution series for either CDDO-2P-Im or Cisplatin (P4394, Sigma) dissolved in PBS and diluted in media. […] Reduction in confluence is accompanied by the detachment and death of ovarian cancer cells.

OVCAR-8 = assay: as above; assay type: cell-based, human; details: cisplatin dose used in the combination
From the text: as §1, §2

OVCAR-5 = assay: as above; assay type: cell-based, human; details: cisplatin dose used in the combination
From the text: as §1, §2

OV81 = assay: as above; assay type: cell-based, human; details: cisplatin dose used in the combination
From the text: as §1, §2

A2780 = assay: as above; assay type: cell-based, human; details: cisplatin dose used in the combination
From the text: as §1, §2

CP10 = assay: as above; assay type: cell-based, human; details: cisplatin dose used in the combination
From the text: as §1, §2

NLRP3 = assay: Mono-sodium urate (MSU)-induced peritonitis; assay type: in vivo, Mice; details: MSU crystals 1 mg/mouse i.p.; lavage four to sixteen hours later
Experimental: FIG. 7 is a bar graph. CDDO-Im, CDDO-2P-Im, and CDDO-3P-Im inhibit mono-sodium urate (MSU)-induced peritonitis. Peritoneal cavity IL-1β levels expressed as mean and SEM (n=6).
Mice received intraperitoneal (i.p.) injections of mono-sodium urate (MSU) crystals (1 mg/mouse) in the presence or absence of CDDO-Im, CDDO-2P-Im, or CDDO-3P-Im. Due to its particulate material, MSU crystals are potent activators of the NOD-like receptor NLRP3. Four to sixteen hours later a peritoneal lavage was conducted to collect supernatant from the peritoneal cavity.

NLRP3 inflammasome = NLRP3 inflammasome activation in LPS-primed BMDM, IL-1β ELISA; assay type: cell-based, mouse; details: for IL-1β production by NLRP3 inflammasome activation: LPS primed BMDM, different doses (30-1000 nM) 15 min before ATP (5 mM) 45 min, ELISA
Experimental: FIG. 4A depicts an experimental design and FIG. 4B is a bar graph. Ixazomib (IXZ) potentiation of NLRP3 inflammasome activation inhibited by CDDO-2P-Im. Bone marrow derived macrophages (BMDM) were treated with Ixazomib (IXZ) and LPS (100 ng/ml) for 20 hours. Primed-BMDM were treated with CDDO-2P-Im (100 nM) for 15 min, followed by stimulation of ATP (5 mM) for 45 min. Supernatant were analyzed by ELISA for IL-1β release.
FIG. 6 is a set of bar graphs. CDDO-Im, CDDO-2P-Im (right panel), and CDDO-3P-Im (left panel) inhibit IL-1β production by NLRP3 inflammasome activation. LPS primed-BMDM were treated with different doses of CDDO-Im, CDDO-2P-Im, or CDDO-3P-Im for 15 min before ATP (5 mM) was added for 45 min. Supernatant were analyzed by ELISA for IL-1β.
To explore the potential that CDDO-2P-IM may enhance the MM response to proteasome inhibitors via inhibition of inflammasome activity, the effect of CDDO-2P-IM on activation of the NLRP3 complex (as defined by IL-1β production), in the presence or absence of IXZ in primary mouse bone marrow derived macrophages (BMDM) was evaluated. In the experiment, BMDM were primed by lipopolysaccharide (LPS) in the presence or absence of IXZ for 4 hours, followed by a brief ([…]) exposure to CDDO-2P-IM after which inflammasome activation was triggered by ATP.
(§3) The effects of the pyridyl derivatives of CDDO-IM, (specifically, CDDO-2P-Im and CDDO-3P-Im) on NLRP3 inflammasome activation were tested in mouse BMDMs. Cells were first primed with LPS for 4 hours, then pretreated with specific doses of either CDDO-Im, CDDO-2P-IM or CDDO-3P-Im (30-1000 nM) for 15 min before ATP was added for another 45 min. CDDO-Im and its pyridyl derivatives inhibited the amount of caspase-p10 (an auto-processed fragment of caspase-1) released into cell culture supernatants in a dose-dependent manner as measured by Western blot (FIG. 5). […] The effect on caspase-1 activation is specific for the NLRP3 inflammasome as the AIM2 inflammasome activation by poly(dA:dT) was not inhibited by the synthetic CDDO-Im derivatives (data not shown).

CCL2 = CCL2 expression in LPS-stimulated human macrophages, RT-qPCR; assay type: cell-based; details: 16 hours pretreatment, then 10 ng/ml LPS 24 hours
Experimental: FIG. 10 is a bar graph. CDDO-Me, CDDO-Im, CDDO-2P-Im, and CDDO-3P-Im inhibit expression of CCL2 in human macrophages at picomolar concentrations.
Human peripheral blood monocytes were isolated using CD14 magnetic beads and differentiated with 20 ng/ml M-CSF for with 5 days and pretreated or not with 300 nM CDDO-Me; 500 pM CDDO-Im; 500 pM CDDO-2p-Im; 500 pM CDDO-3p-Im for 16 hours, followed by stimulation with 10 ng/ml LPS for an additional 24 hours. Total RNA was extracted and analyzed by RT-qPCR (Tagman) for cytokine expression.

Caspase 1 = Caspase 1 activation in LPS-primed BMDM, immunoblotting (caspase-p10); assay type: cell-based, mouse; details: different doses (30-1000 nM) 15 min before ATP (5 mM) 45 min
Experimental: FIG. 5 depicts a Western blot. CDDO-Im, CDDO-2P-Im, and CDDO-3P-Im inhibit Caspase 1 activation. LPS primed BMDM were treated with different doses of CDDO-Im, CDDO-2P-Im, or CDDO-3P-Im for 15 min before ATP (5 mM) was added for 45 min. Medium supernatant (SUP) and cell extracts (Lys) were analyzed by immunoblotting.
as §3

RPMI8226 cells = assay: MM cell proliferation (confluence), IncuCyte imaging; assay type: cell-based, human; details: 100 nM TTX01 or 7.5 nM IXZ alone, 72 hours
Experimental: (§4) FIG. 2 is a bar graph. CDDO-2P-Im inhibits proliferation of multiple myeloma cell line in vitro. 5T33MM, RPMI8226, and ARH77 cells were seeded in 96-well plates and incubated with CDDO-2P-Im (50 nM-150 nM). Confluence (cell proliferation) was measured using IncuCyte imaging after 72 hours. *p<0.01 compared to control.
(§5) FIG. 3 is a bar graph. […] Shown here are results for 5T33MM (50 nM TTX01/7.5 nM IXZ); RPMI8226 (100 nM TTX01/7.5 nM IXZ); and ARH77 (150 nM TTX01/10 nM IXZ). Confluence (cell proliferation) was measured using IncuCyte imaging after 72 hours.
(§6) To examine tumor-intrinsic effects of CDDO-2P-IM in the 5T33MM cell line and in human MM cells, conducted a series of in vitro studies was conducted. For these experiments, 96-well plates were first coated in poly-L-ornithine before cells were seeded (in triplicate), including the murine 5T33MM and the human RPMI8226, and ARH77 cell lines (15,000 cells per well). Cells were incubated in IncuCyte™ Live-Cell Analysis System for 72 hours (images were taken every 4 hours). To define dose-dependent effect of CDDO-2P-IM, cells were exposed to concentrations ranging from 50 nM to 150 nM. To examine potential synergy of CDDO-2P-IM with IXZ, MM cells were exposed to IXZ (7 nM-10 nM) either alone or in combination with CDDO-2P-IM.

ARH77 cells = assay: as above; assay type: cell-based, human; details: 150 nM TTX01 or 10 nM IXZ alone, 72 hours
Experimental: as §4, §5, §6

5T33MM cells = assay: as above; assay type: cell-based, murine; details: 50 nM TTX01 or 7.5 nM IXZ alone, 72 hours
Experimental: as §4, §5, §6

## N.N.[Cl][Pt][Cl] [cisplatin, cis-diamminedichloroplatinum(II), reference compound]
CP70
  ovarian cancer cell kill, cisplatin alone: absolutely no effect
OVCAR-8
  ovarian cancer cell kill, cisplatin alone: absolutely no effect
OVCAR-5
  ovarian cancer cell kill, cisplatin alone: absolutely no effect
OV81
  ovarian cancer cell kill, cisplatin alone: absolutely no effect
A2780
  ovarian cancer cell kill, cisplatin alone: absolutely no effect
CP10
  ovarian cancer cell kill, cisplatin alone: absolutely no effect

## CC1(C)CC[C@]2(C(=O)n3ccnc3)CC[C@]3(C)[C@H](C(=O)C=C4[C@@]5(C)C=C(C#N)C(=O)C(C)(C)[C@@H]5CC[C@]43C)[C@@H]2C1 [CDDO-Im, 1-(2-cyano-3,12-dioxooleana-1,9(11)-dien-28-oyl) imidazole, reference compound]
NLRP3
  MSU-induced peritonitis (peritoneal cavity IL-1β levels): inhibit
NLRP3 inflammasome
  IL-1β production by NLRP3 inflammasome activation: inhibit
CCL2; 500 pM
  expression of CCL2: inhibit
Caspase 1
  Caspase 1 activation (caspase-p10 released into supernatant): inhibit

## COC(=O)[C@]12CCC(C)(C)C[C@H]1[C@H]1C(=O)C=C3[C@@]4(C)C=C(C#N)C(=O)C(C)(C)[C@@H]4CC[C@@]3(C)[C@]1(C)CC2 [CDDO-Me, reference compound]
CCL2; 300 nM
  expression of CCL2: inhibit

## CC1(C)CC[C@]2(C(=O)n3cnc(-c4cccnc4)c3)CC[C@]3(C)[C@H](C(=O)C=C4[C@@]5(C)C=C(C#N)C(=O)C(C)(C)[C@@H]5CC[C@]43C)[C@@H]2C1 [CDDO-3P-Im, 1-[2-Cyano-3,12-dioxooleana-1,9(11)-dien-28-oyl]-4(-pyridin-3-yl)-1H-imidazole]
NLRP3
  MSU-induced peritonitis (peritoneal cavity IL-1β levels): inhibit
NLRP3 inflammasome
  IL-1β production by NLRP3 inflammasome activation: inhibit
CCL2; 500 pM
  expression of CCL2: inhibit
Caspase 1
  Caspase 1 activation (caspase-p10 released into supernatant): inhibit

## CC(C)C[C@H](NC(=O)CNC(=O)c1cc(Cl)ccc1Cl)B(O)O [IXZ, reference compound]
RPMI8226 cells
  proliferation (confluence), agent added alone: only partially effective
ARH77 cells
  proliferation (confluence), agent added alone: only partially effective
NLRP3 inflammasome; BMDM, IXZ and LPS (100 ng/ml), ATP (5 mM) 45 min
  IL-1β release (NLRP3 inflammasome activation), effect of IXZ during LPS priming: potentiation
5T33MM cells
  proliferation (confluence), agent added alone: only partially effective
